Key:
Type in all cases: in vivo
[1] = test system: ivy-leaved morning glory (Ipomoea hederacea); assay: Test G Post-Emergence Protocol; conditions: Ipomoea, post-emergence, 312 h, read-out: Morningglory, Ivy-leaved damage rating; for pest or weed control at 15.625 g/ha: 15.625 g ai/ha, evaluated after 13 days (100=total damage to plant; 0=no damage to plant); for pest or weed control at 62.5 g/ha: 62.5 g ai/ha; for pest or weed control at 62.5 g/ha / pest or weed control at 250 g/ha: evaluated after 13 days, 100=total damage to plant, 0=no damage to plant; for pest or weed control at 250 g/ha: 250 g ai/ha
Outline: (§1)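 Damage was rated 13 days after treatment from 0 (none) to 100 (plant killed). Compound was applied as a spray at 15.625, 62.5 or 250 g/ha in 50:50 acetone/water containing 0.5% Tween 20, onto 8-day-old potted plants kept in a glasshouse (24/16 °C, 14 h light, 65% humidity).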

[2] = test system: barnyardgrass (Echinochloa crus-galli); assay: Test G Post-Emergence Protocol; conditions: Echinochloa crus-galli, post-emergence, 312 h, read-out: Barnyardgrass damage rating; for pest or weed control at 15.625 g/ha: 15.625 g ai/ha, evaluated after 13 days (100=total damage to plant; 0=no damage to plant); for pest or weed control at 62.5 g/ha: 62.5 g ai/ha; for pest or weed control at 62.5 g/ha / pest or weed control at 250 g/ha: evaluated after 13 days, 100=total damage to plant, 0=no damage to plant; for pest or weed control at 250 g/ha: 250 g ai/ha
Outline: as §1

[3] = test system: redroot pigweed (Amaranthus retroflexus); assay: Test G Post-Emergence Protocol; conditions: Amaranthus retroflexus, post-emergence, 312 h, read-out: Pigweed, Redroot damage rating; for pest or weed control at 15.625 g/ha: 15.625 g ai/ha, evaluated after 13 days (100=total damage to plant; 0=no damage to plant); for pest or weed control at 62.5 g/ha: 62.5 g ai/ha; for pest or weed control at 62.5 g/ha / pest or weed control at 250 g/ha: evaluated after 13 days, 100=total damage to plant, 0=no damage to plant; for pest or weed control at 250 g/ha: 250 g ai/ha
Outline: as §1

corn (Zea mays) [4] = assay: Test G Post-Emergence Protocol; conditions: Zea mays, post-emergence, 312 h, read-out: Corn damage rating; for plant injury at 15.625 g/ha: 15.625 g ai/ha, evaluated after 13 days (100=total damage to plant; 0=no damage to plant); for plant injury at 62.5 g/ha: 62.5 g ai/ha; for plant injury at 62.5 g/ha / plant injury at 250 g/ha: evaluated after 13 days, 100=total damage to plant, 0=no damage to plant; for plant injury at 250 g/ha: 250 g ai/ha
Outline: as §1

[5] = test system: velvetleaf (Abutilon theophrasti); assay: Test G Post-Emergence Protocol; conditions: Abutilon theophrasti, post-emergence, 312 h, read-out: Velvetleaf damage rating; for pest or weed control at 15.625 g/ha: 15.625 g ai/ha, evaluated after 13 days (100=total damage to plant; 0=no damage to plant); for pest or weed control at 62.5 g/ha: 62.5 g ai/ha; for pest or weed control at 62.5 g/ha / pest or weed control at 250 g/ha: evaluated after 13 days, 100=total damage to plant, 0=no damage to plant; for pest or weed control at 250 g/ha: 250 g ai/ha
Outline: as §1

[6] = test system: giant foxtail (Setaria faberi); assay: Test G Post-Emergence Protocol; conditions: Setaria faberi, post-emergence, 312 h, read-out: Foxtail, Giant damage rating; for pest or weed control at 15.625 g/ha: 15.625 g ai/ha, evaluated after 13 days (100=total damage to plant; 0=no damage to plant); for pest or weed control at 62.5 g/ha: 62.5 g ai/ha; for pest or weed control at 62.5 g/ha / pest or weed control at 250 g/ha: evaluated after 13 days, 100=total damage to plant, 0=no damage to plant; for pest or weed control at 250 g/ha: 250 g ai/ha
Outline: as §1

[7] = test system: ivy-leaved morning glory (Ipomoea hederacea); assay: Test G Pre-Emergence Protocol; conditions: Ipomoea, pre-emergence, 312 h, evaluated after 13 days; for pest or weed control at 15.625 g/ha: 15.625 g ai/ha; for pest or weed control at 15.625 g/ha / pest or weed control at 250 g/ha: read-out: Morningglory, Ivy-leaved damage rating (100=total damage to plant; 0=no damage to plant); for pest or weed control at 62.5 g/ha: 62.5 g ai/ha, 100=total damage to plant, 0=no damage to plant, read-out: Morningglory, Ivy-leaved damage rating; for pest or weed control at 250 g/ha: 250 g ai/ha
Outline: (§2)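 Visual injury (0–100) at day 13 after a single pre-emergence spray. Rates: 15.625, 62.5, 250 g/ha in acetone–water 50:50 with 0.5% Tween 20. Growth conditions: 24/16° C, 14 h light, 65% humidity.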

[8] = test system: barnyardgrass (Echinochloa crus-galli); assay: Test G Pre-Emergence Protocol; conditions: Echinochloa crus-galli, pre-emergence, 312 h, evaluated after 13 days; for pest or weed control at 15.625 g/ha: 15.625 g ai/ha; for pest or weed control at 15.625 g/ha / pest or weed control at 250 g/ha: read-out: Barnyardgrass damage rating (100=total damage to plant; 0=no damage to plant); for pest or weed control at 62.5 g/ha: 62.5 g ai/ha, 100=total damage to plant, 0=no damage to plant, read-out: Barnyardgrass damage rating; for pest or weed control at 250 g/ha: 250 g ai/ha
Outline: as §2

[9] = test system: redroot pigweed (Amaranthus retroflexus); assay: Test G Pre-Emergence Protocol; conditions: Amaranthus retroflexus, pre-emergence, 312 h, evaluated after 13 days; for pest or weed control at 15.625 g/ha: 15.625 g ai/ha; for pest or weed control at 15.625 g/ha / pest or weed control at 250 g/ha: read-out: Pigweed, Redroot damage rating (100=total damage to plant; 0=no damage to plant); for pest or weed control at 62.5 g/ha: 62.5 g ai/ha, 100=total damage to plant, 0=no damage to plant, read-out: Pigweed, Redroot damage rating; for pest or weed control at 250 g/ha: 250 g ai/ha
Outline: as §2

corn (Zea mays) [10] = assay: Test G Pre-Emergence Protocol; conditions: Zea mays, pre-emergence, 312 h, evaluated after 13 days; for plant injury at 15.625 g/ha: 15.625 g ai/ha; for plant injury at 15.625 g/ha / plant injury at 250 g/ha: read-out: Corn damage rating (100=total damage to plant; 0=no damage to plant); for plant injury at 62.5 g/ha: 62.5 g ai/ha, 100=total damage to plant, 0=no damage to plant, read-out: Corn damage rating; for plant injury at 250 g/ha: 250 g ai/ha
Outline: as §2

[11] = test system: velvetleaf (Abutilon theophrasti); assay: Test G Pre-Emergence Protocol; conditions: Abutilon theophrasti, pre-emergence, 312 h, evaluated after 13 days; for pest or weed control at 15.625 g/ha: 15.625 g ai/ha; for pest or weed control at 15.625 g/ha / pest or weed control at 250 g/ha: read-out: Velvetleaf damage rating (100=total damage to plant; 0=no damage to plant); for pest or weed control at 62.5 g/ha: 62.5 g ai/ha, 100=total damage to plant, 0=no damage to plant, read-out: Velvetleaf damage rating; for pest or weed control at 250 g/ha: 250 g ai/ha
Outline: as §2

[12] = test system: giant foxtail (Setaria faberi); assay: Test G Pre-Emergence Protocol; conditions: Setaria faberi, pre-emergence, 312 h, evaluated after 13 days; for pest or weed control at 15.625 g/ha: 15.625 g ai/ha; for pest or weed control at 15.625 g/ha / pest or weed control at 250 g/ha: read-out: Foxtail, Giant damage rating (100=total damage to plant; 0=no damage to plant); for pest or weed control at 62.5 g/ha: 62.5 g ai/ha, 100=total damage to plant, 0=no damage to plant, read-out: Foxtail, Giant damage rating; for pest or weed control at 250 g/ha: 250 g ai/ha
Outline: as §2

| SMILES | pest or weed control at 15.625 g/ha [1] | pest or weed control at 62.5 g/ha [1] | pest or weed control at 250 g/ha [1] | pest or weed control at 15.625 g/ha [2] | pest or weed control at 62.5 g/ha [2] | pest or weed control at 250 g/ha [2] | pest or weed control at 15.625 g/ha [3] | pest or weed control at 62.5 g/ha [3] | pest or weed control at 250 g/ha [3] | plant injury at 15.625 g/ha (corn (Zea mays) [4]) | plant injury at 62.5 g/ha (corn (Zea mays) [4]) | plant injury at 250 g/ha (corn (Zea mays) [4]) | pest or weed control at 15.625 g/ha [5] | pest or weed control at 62.5 g/ha [5] | pest or weed control at 250 g/ha [5] | pest or weed control at 15.625 g/ha [6] | pest or weed control at 62.5 g/ha [6] | pest or weed control at 15.625 g/ha [7] | pest or weed control at 62.5 g/ha [7] | pest or weed control at 250 g/ha [7] | other results |
| --- | --- | --- | --- | --- | --- | --- | --- | --- | --- | --- | --- | --- | --- | --- | --- | --- | --- | --- | --- | --- | --- |
| CN1C[C@H](c2ccc(C(F)(F)F)cc2)[C@@H](C(=O)Nc2cccc3c2S(=O)(=O)CC3)C1=O (racemic) [Compound 1737] | 0% | 0% | 0% | 0% | 0% | 0% | 0% | 0% | 0% | 0% | 0% | 0% | 0% | 0% | 0% | 0% | 0% | 0% | 0% | 0% | pest or weed control at 250 g/ha [6]: 0%; pest or weed control at 15.625 g/ha [8]: 0%; pest or weed control at 62.5 g/ha [8]: 0%; pest or weed control at 250 g/ha [8]: 0%; pest or weed control at 15.625 g/ha [9]: 0%; pest or weed control at 62.5 g/ha [9]: 0%; pest or weed control at 250 g/ha [9]: 0%; plant injury at 15.625 g/ha (corn (Zea mays) [10]): 0%; plant injury at 62.5 g/ha (corn (Zea mays) [10]): 0%; plant injury at 250 g/ha (corn (Zea mays) [10]): 0%; pest or weed control at 15.625 g/ha [11]: 0%; pest or weed control at 62.5 g/ha [11]: 0%; pest or weed control at 250 g/ha [11]: 0%; pest or weed control at 15.625 g/ha [12]: 0%; pest or weed control at 62.5 g/ha [12]: 0%; pest or weed control at 250 g/ha [12]: 0% |
| CN1C[C@H](c2ccc(F)c(F)c2)[C@@H](C(=O)Nc2cnccc2C(F)(F)F)C1=O (racemic) [Compound 1740] | 0% | 0% | 20% | 0% | 0% | 20% | 0% | 0% | 0% | 0% | 0% | 0% | 0% | 0% | 10% | 0% | 40% | 0% | 0% | 0% | pest or weed control at 15.625 g/ha [8]: 0%; pest or weed control at 62.5 g/ha [8]: 30%; pest or weed control at 250 g/ha [8]: 40%; pest or weed control at 15.625 g/ha [9]: 0%; pest or weed control at 62.5 g/ha [9]: 0%; pest or weed control at 250 g/ha [9]: 40%; plant injury at 15.625 g/ha (corn (Zea mays) [10]): 0%; plant injury at 62.5 g/ha (corn (Zea mays) [10]): 0%; plant injury at 250 g/ha (corn (Zea mays) [10]): 10%; pest or weed control at 15.625 g/ha [11]: 0%; pest or weed control at 62.5 g/ha [11]: 0%; pest or weed control at 250 g/ha [11]: 50%; pest or weed control at 15.625 g/ha [12]: 0%; pest or weed control at 62.5 g/ha [12]: 60%; pest or weed control at 250 g/ha [12]: 90% |
| CN1C[C@H](c2cccc(C(F)F)c2)[C@@H](C(=O)Nc2cnccc2C(F)(F)F)C1=O (racemic) [Compound 1742] | 0% | 0% | 40% | 0% | 70% | 80% | 0% | 20% | 30% | 0% | 0% | 70% | 0% | 10% | 20% | 70% | 80% | 0% | 0% | 10% | pest or weed control at 250 g/ha [6]: 80%; pest or weed control at 15.625 g/ha [8]: 0%; pest or weed control at 62.5 g/ha [8]: 0%; pest or weed control at 250 g/ha [8]: 80%; pest or weed control at 15.625 g/ha [9]: 0%; pest or weed control at 62.5 g/ha [9]: 10%; pest or weed control at 250 g/ha [9]: 20%; plant injury at 15.625 g/ha (corn (Zea mays) [10]): 0%; plant injury at 62.5 g/ha (corn (Zea mays) [10]): 0%; plant injury at 250 g/ha (corn (Zea mays) [10]): 30%; pest or weed control at 15.625 g/ha [11]: 0%; pest or weed control at 62.5 g/ha [11]: 0%; pest or weed control at 250 g/ha [11]: 30%; pest or weed control at 15.625 g/ha [12]: 50%; pest or weed control at 62.5 g/ha [12]: 80%; pest or weed control at 250 g/ha [12]: 90% |

— patent publication US12077503B2, “Substituted cyclic amides and their use as herbicides” (FMC CORPORATION, priority 2015, dated 2024)
